Results: US4333938A, “Imino derivatives of 5-aminobenzodioxole-1,3 which are useful as medicaments” (Laboratoires Sarget, priority 1979, dated 1982)

Tests used:
blood sugar level = assay: antidiabetic activity, blood sugar level in streptozotocin hyperglycemic rats; assay type: in vivo, Female rats; design: key: NS: the difference between the blood sugar level in the treated animals and the control animals is not significant; the difference is significant by Student's test at p≤0.05; conditions: oral
Method: Female rats weighing 180-200 grams were given an intraperitoneal dose on day J0 of 100 mg/kg of streptozotocin in a 0.05 M citrate buffer at a pH of 4.5 calculated as 0.5 ml per 100 g of body weight. On day J2 hyperglycemic animals were selected by determining the blood sugar level by the orthotoludine method in a stream continuously removed from the retroorbital sinus. […] On day J3, without previous fasting, the selected animals received the treatment. This consisted of oral administration of the test compound in a 6% aqueous suspension of gum arabic at a volume of 0.5 ml per 100 g of body weight.
The animals were sacrificed one, two, or four hours after the treatment and their blood sugar levels were determined. Each group of animals was compared to a control group of animals which received only the suspension of gum arabic. Metformin was the substance chosen as the control.
The results are given in Table 8 which indicates the percentage of decrease in the blood sugar level produced by the treatment.

[1] = oral toxicity (mortality) in the Wistar rat; assay type: in vivo; conditions: in vivo, 3000 mg/kg
Method: The percentages of mortality produced by the compounds of this invention when administered orally to Swiss mice are shown in Table 1. The animals, free from specific pathogenic organisms were housed in an air conditioned room for 24 to 48 hours before the start of the experiment. They were separated into groups of 5 males and 5 females. The materials were administered to animals which had been fasted for 24 hours by means of a gastric tube in suspension in a 6% thickened julep using a volume equivalent to 0.1 ml per 10 g of body weight. […] They remained under observation for two weeks before being sacrificed and autopsied.
The toxicities of the compounds of Examples 2 and 3 were determined in the Wistar rat. The protocol which was followed was the same as that described for the mice, except that the compounds were administered in a volume equivalent to 0.5 ml per 100 g of body weight of rat. […] The product of Example 3 produced no mortality at 2000 mg/kg and 20% mortality at 3000 mg/kg.

[2] = 50 mg/kg, treatment 1 h before sacrificing
[3] = 50 mg/kg, treatment 2 h before sacrificing
[4] = 50 mg/kg, treatment 4 h before sacrificing
[5] = 100 mg/kg, treatment 1 h before sacrificing
[6] = 100 mg/kg, treatment 2 h before sacrificing
[7] = 100 mg/kg, treatment 4 h before sacrificing
[8] = 200 mg/kg, treatment 1 h before sacrificing
[9] = 200 mg/kg, treatment 2 h before sacrificing
[10] = 200 mg/kg, treatment 4 h before sacrificing

Structure (SMILES)	Percentage Decrease in the Blood Sugar (blood sugar level; [2]) [%]	Percentage Decrease in the Blood Sugar (blood sugar level; [3])	Percentage Decrease in the Blood Sugar (blood sugar level; [4]) [%]	Percentage Decrease in the Blood Sugar (blood sugar level; [5])	Percentage Decrease in the Blood Sugar (blood sugar level; [6]) [%]	Percentage Decrease in the Blood Sugar (blood sugar level; [7]) [%]	Percentage Decrease in the Blood Sugar (blood sugar level; [8])	Percentage Decrease in the Blood Sugar (blood sugar level; [9]) [%]	Percentage Decrease in the Blood Sugar (blood sugar level; [10]) [%]	mortality at 336 h [1] [%]
C(=Nc1ccc2c(c1)OCO2)c1cccnc1 [Example 3, N-(3-pyridylidene)-5-aminobenzodioxole-1,3]	16	NS	23	NS	27	29	NS	19	28	20
Cc1ccc(C=Nc2ccc3c(c2)OCO3)s1 [Example 2, N-(5-methyl-2-thienylidene)-5-aminobenzodioxole-1,3]	13	22%	12	22%	32	27	24%	35	31	
